≈ marks a conversion by molar mass, not a printed value.
What was measured:
[1] = test system: HCMV recombinant mutant virus (RV145); assay: microbe, parasite or virus in culture; format: cell-based, human cytomegalovirus; conditions: for IC50: Human betaherpesvirus 5, read-out: IC50 ug/ml HCMV, HCMV
In short: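 Read-out is beta-glucuronidase activity in cell lysates 96 h after infection, measured colorimetrically or fluorometrically. Reporter virus RV145 expresses the enzyme under a viral promoter in human foreskin fibroblasts treated with inhibitor.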

HSV-1 = assay: HSV Antiviral (ELISA) Assay in Vero cells; format: cell-based, herpes simplex virus type 1; conditions: HSV-1, Vero cells; for IC50: Human alphaherpesvirus 1, read-out: IC50 (ug/ml) HSV
In short: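 Viral replication was quantified by cell-fixed ELISA for HSV glycoprotein D, using a β-galactosidase reporter and fluorogenic umbelliferyl substrate, about 24 h after HSV-1 infection (MOI 0.006) of Vero cells. Compounds, at several concentrations, were added 30 min pre-infection. IC50 was derived from fluorescence relative to the compound-free signal.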

VZV strain Ellen = assay: VZV Antiviral (ELISA) Assay in human foreskin fibroblast cells; format: cell-based, varicella-zoster virus; conditions: for inhibition at 10 µg/mL / IC50: Human alphaherpesvirus 3, Fibroblast; for inhibition at 10 µg/mL: read-out: % inhibition 10 ug/ml VZV, 10 ug/ml; for IC50: read-out: IC50 (ug/ml) VZV
In short: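 Cell-based ELISA: infected/uninfected HFF mix (VZV Ellen, MOI <0.1) exposed to compound in DMEM/2% FBS for 3 days at 37° C. Anti-gpII monoclonal plus β-galactosidase-linked secondary, detected as 4-methylumbelliferone fluorescence; IC50 derived by comparing fluorescence with versus without compound.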

Row | SMILES | IC50 ug/ml HCMV [1] [µg/mL] | IC50 (ug/ml) HSV (HSV-1) [µg/mL] | IC50 (ug/ml) VZV (VZV strain Ellen) [µg/mL] | IC50 [1] [µg/mL] | IC50 (HSV-1) [µg/mL] | inhibition at 10 µg/mL (VZV strain Ellen) [%] | IC50 (VZV strain Ellen) [µg/mL] | % inhibition 10 ug/ml VZV (VZV strain Ellen; 10 ug/ml) [%]
1 | CC(C)Oc1ccc(NC(=S)Nc2ccc(NC(=O)c3ccccc3F)cc2)cc1Cl [Example 808] | >10 | >10 | >7.5 |  |  |  |  | 
2 | CCCCOc1ccc(NC(=S)Nc2ccc(NC(=O)c3ccccc3F)cc2)cc1Cl [Example 809] | >10 | >10 | >7.5 |  |  |  |  | 
3 | COc1ccc(NC(=S)Nc2ccc(NC(=O)c3ccccc3F)cc2)cc1Br [Example 811] | 3.1 (≈ 6.54 µM) | 0.8 (≈ 1.69 µM) | >7.5 |  |  |  |  | 
4 | COc1cc(C)c(Cl)cc1NC(=S)Nc1ccc(NC(=O)c2ccccc2F)cc1 [Example 849, N-{4-[3-(5-Chloro-2-methoxy-4-methyl-phenyl)-thioureido]-phenyl}-2-fluoro-benzamide] |  |  |  | > 10 | > 10 | 38 | > 10 | 
5 | CN1CCC(N(C)c2ccc(NC(=S)Nc3ccc(NC(=O)c4ccccc4F)cc3)cc2Cl)CC1 [Example 855, N-[4-(3-{3-Chloro-4-[methyl-(1-methyl-piperidin-4-yl)-amino]-phenyl}-thioureido)-phenyl]-2-fluoro-benzamide] |  |  |  | 0.7 (≈ 1.33 µM) | 2.5 (≈ 4.75 µM) | 52 | > 10 | 
6 | O=C(Nc1ccc(NC(=S)Nc2ccccc2)cc1)c1ccccc1F [Example 859, 2-Fluoro-N-[4-(3-phenyl-thioureido)-phenyl]-benzamide] |  |  |  | > 10 | > 10 | 20 | > 10 | 
7 | COc1ccccc1C(=O)Nc1ccc(NC(=S)Nc2cc(Cl)c(OC)c(Cl)c2)cc1 [Example 873] | 0.3 (≈ 0.63 µM) | >10 | >10 |  |  |  |  | 23
8 | O=C(Nc1ccc(NC(=S)Nc2ccc(Cl)c(Cl)c2)cc1)c1ccccc1F [Example 912, N-{4-[3-(3,4-Dichloro-phenyl)-thioureido]-phenyl}-2-fluoro-benzamide] |  |  |  | > 10 | 8 (≈ 18.4 µM) | 21 | > 10 | 
9 | O=C(Nc1ccc(NC(=S)Nc2ccc(F)c(Cl)c2)cc1)c1ccccc1F [Example 922, N-{4-[3-(3-Chloro-4-fluoro-phenyl)-thioureido]-phenyl}-2-fluoro-benzamide] |  |  |  | > 10 | 1 (≈ 2.39 µM) | 40 | > 10 | 
10 | O=C(Nc1ccc(NC(=S)Nc2cc(Cl)ccc2Cl)cc1)c1ccccc1F [Example 931, N-{4-[3-(2,5-Dichloro-phenyl)-thioureido]-phenyl}-2-fluoro-benzamide] |  |  |  | > 10 | 4 (≈ 9.21 µM) | 51 | > 10 | 
11 | O=C(Nc1ccc(NC(=S)Nc2cc(Cl)cc(Cl)c2)cc1)c1ccccc1F [Example 934, N-{4-[3-(3,5-Dichloro-phenyl)-thioureido]-phenyl}-2-fluoro-benzamide] |  |  |  | > 10 | > 10 | 18 | > 10 | 
12 | O=C(Nc1ccc(NC(=S)Nc2cc(Cl)c(Cl)c(Cl)c2)cc1)c1ccccc1F [Example 937, 2-Fluoro-N-{4-[3-(3,4,5-trichloro-phenyl)-thioureido]-phenyl}-benzamide] |  |  |  | 2 (≈ 4.27 µM) | 0.7 (≈ 1.49 µM) | 25 | > 10 | 
13 | COC(=O)c1cccc(NC(=S)Nc2ccc(NC(=O)c3ccccc3F)cc2)c1 [Example 950, 3-{3-[4-(2-Fluoro-benzoylamino)-phenyl]-thioureido}-benzoic acid methyl ester] |  |  |  | > 10 | 8 (≈ 18.9 µM) |  | > 10 | 
14 | O=C(Nc1ccc(NC(=S)Nc2cccc([N+](=O)[O-])c2)cc1)c1ccccc1F [Example 959, 2-Fluoro-N-{4-[3-(3-nitro-phenyl)-thioureido]-phenyl}-benzamide] |  |  |  | > 10 | 0.7 (≈ 1.71 µM) | 33 | > 10 | 
15 | O=C(Nc1ccc(NC(=S)Nc2cccc(F)c2)cc1)c1ccccc1F [Example 962, 2-Fluoro-N-{4-[3-(3-fluoro-phenyl)-thioureido]-phenyl}-benzamide] |  |  |  | > 10 | > 10 | 10 | > 10 | 
16 | O=C(O)c1cccc(NC(=S)Nc2ccc(NC(=O)c3ccccc3F)cc2)c1 [Example 963, 3-{3-[4-(2-Fluoro-benzoylamino)-phenyl]-thioureido}-benzoic acid] |  |  |  | > 10 | > 10 | 30 | > 10 | 
17 | O=C(O)c1cccc(NC(=S)Nc2ccc(NC(=O)c3ccco3)cc2)c1 [Example 964, 3-(3-{4-[(Furan-2-carbonyl)-amino]-phenyl}-thioureido)-benzoic acid] |  |  |  | > 10 | > 10 | 0 | > 10 | 
18 | CC(=O)c1cccc(NC(=S)Nc2ccc(NC(=O)c3ccccc3F)cc2)c1 [Example 965, N-{4-[3-(3-Acetyl-phenyl)-thioureido]-phenyl}-2-fluoro-benzamide] |  |  |  | > 10 | 5 (≈ 12.3 µM) | 12 | > 10 | 
19 | CC(NC(=S)Nc1ccc(NC(=O)c2ccccc2C(F)(F)F)cc1)c1cc2ccccc2o1 (centres unmarked) [Example 974, N-{4-[3-(1-Benzofuran-2-yl-ethyl)-thioureido]-phenyl}-2-trifluoromethyl-benzamide] |  |  |  | > 10 | > 10 |  | > 7.5 | 
